According to US10428104B2, “Substituted nucleoside derivatives useful as anticancer agents” (Pfizer Inc., priority 2015, dated 2019):

Biological target: PRMT5/MEP50 protein complex (Homo sapiens (Human), UniProt O14744)
Assay: PRMT5 biochemical assay (3H-SAM methylation of H4(1-21) peptide, filter plate scintillation counting)
Conditions: PRMT5 enzyme inhibition; 10 nM PRMT5/MEP50 complex, 200 nM H4(1-21) peptide, 1 uM SAM, 25 minute incubation at room temperature
Description: Following dilution, 1 ul was added to an empty 96-well microtiter plate. PRMT5/MEP50 protein complex was combined with H4(1-21) peptide ([…]) in PRMT5 assay buffer (50 mM Tris pH 8.5, 50 mM NaCl, 5 mM MgCl2, 1 mM EDTA, 1 mM TCEP) and 44 ul was added to the microtiter plate containing compound. S-Adenosyl-L-methionine (SAM) was prepared by combining ^3H labelled SAM with unlabelled SAM in PRMT5 assay buffer such that the final SAM concentration was 10 uM and the specific activity was 0.2 uCi/ul. The reaction was initiated by adding 5 ul of SAM stock to the microtiter plate. The final reaction conditions were 10 nM PRMT5/MEP50 complex, 200 nM peptide and 1 uM SAM. Following a 25 minute incubation at room temperature, the reaction was stopped with the addition of 100 uL of 20% TCA. The 3H-peptide product was captured using a 96-well filter plate (MSIPN4B, Millipore) and washed 5 times with PBS buffer. Scintillation fluid (100 ul) was added to the dried filter plate and counted in a liquid scintillation counter. IC50 values were determined by fitting the data to the standard 4-parameter dose response equation using Pfizer proprietary software.
In the final construct PRMT5 ORF was under control of polyhedrin promoter (polH) while MEP50 ORF was under control of p10 promoter.
Viruses were generated using standard Bac-to-Bac viral generation protocols (Life Technologies) and amplified to high-titer passage two (P2) stocks. Protein over expression was conducted in exponentially growing Sf21 cells infected at 2×106 with P2 viral stock at MOI=1 of PRMT5-Mep50 dual construct virus and Mep50 construct virus at 1:1 ratio. The co-expression protocol was used to supplement additional Mep50 for FlagPRMT5-Mep50 heterodimer formation. Cells were harvested at 72 h post infection by centrifugation and frozen pellet was stored at −80° C.
FlagPRMT5-Mep50 complex was purified from cell lysate using Flag affinity chromatography. Cell were lyzed in 50 mM Tris 7.5, 200 mM NaCl, 10% glycerol, 0.25 mM TCEP supplemented with EDTA-free protease inhibitor cocktail (Roche). 1.5 ml of lysis buffer was added per 1 g of frozen pellet. The clarified lysate was obtained by centrifugation of cell lysate at 10,000 g for 1 h at 4 C. 5 ml of Anti-FLAG M2 Agarose (Sigma) […] was added to the clarified lysate to isolate FlagPRMT5-Mep50. Following batch binding for 3 h at 4 C, Flag resin bound to FlagPRMT5-Mep50 washed with 20 column volumes (CV) of 50 mM Tris 7.5, 200 mM NaCl, 10% glycerol, 0.25 mM TCEP followed by elution of FlagPRMT5-Mep50 complex using 3 CV of 50 mM Tris 7.5, 200 mM NaCl, 10% glycerol, 0.25 mM TCEP supplemented with 200 ug/ml of FLAG Peptide ([…]). […] Peak fractions containing FlagPRMT5-Mep50 complex were concentrated to 1.6 mg/ml, flash frozen in small aliquots using liquid nitrogen and stored at −80° C.

Chain of PRMT5/MEP50 protein complex (O14744 other isoform, or with tags, fused parts or gaps): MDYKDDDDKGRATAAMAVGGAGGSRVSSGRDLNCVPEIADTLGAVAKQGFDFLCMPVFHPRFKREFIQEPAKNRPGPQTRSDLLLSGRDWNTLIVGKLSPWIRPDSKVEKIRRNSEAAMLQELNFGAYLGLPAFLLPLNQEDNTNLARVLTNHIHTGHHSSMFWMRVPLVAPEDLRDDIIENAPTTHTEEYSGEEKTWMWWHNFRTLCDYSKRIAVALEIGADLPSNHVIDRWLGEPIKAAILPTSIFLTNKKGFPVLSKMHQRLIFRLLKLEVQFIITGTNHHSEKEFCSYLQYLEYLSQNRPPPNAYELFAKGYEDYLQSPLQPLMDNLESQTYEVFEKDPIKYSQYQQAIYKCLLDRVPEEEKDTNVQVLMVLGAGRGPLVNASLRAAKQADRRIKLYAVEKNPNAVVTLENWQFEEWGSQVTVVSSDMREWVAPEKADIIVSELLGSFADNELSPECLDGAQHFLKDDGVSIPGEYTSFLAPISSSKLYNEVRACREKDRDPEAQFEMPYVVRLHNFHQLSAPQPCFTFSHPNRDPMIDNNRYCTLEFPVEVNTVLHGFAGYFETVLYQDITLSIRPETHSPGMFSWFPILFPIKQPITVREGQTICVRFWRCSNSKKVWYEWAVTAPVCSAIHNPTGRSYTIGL
Chain of PRMT5/MEP50 protein complex (Q9BQA1 whole entry partner): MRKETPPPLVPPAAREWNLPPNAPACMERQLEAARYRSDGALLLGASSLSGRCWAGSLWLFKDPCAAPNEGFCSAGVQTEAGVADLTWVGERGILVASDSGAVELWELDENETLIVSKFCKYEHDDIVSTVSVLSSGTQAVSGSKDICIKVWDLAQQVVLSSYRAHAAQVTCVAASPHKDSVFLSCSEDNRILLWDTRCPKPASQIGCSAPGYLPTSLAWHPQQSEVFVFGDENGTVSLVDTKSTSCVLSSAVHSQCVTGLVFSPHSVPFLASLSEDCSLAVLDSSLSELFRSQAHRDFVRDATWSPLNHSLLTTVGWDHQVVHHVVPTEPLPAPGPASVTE

IC50	Compound
0.752 µM	Cc1ncnc2c1ccn2[C@@H]1O[C@H]([C@H](O)CCc2ccccc2)[C@@H](O)[C@H]1O [Example 30, (2R,3S,4R,5R)-2-((R)-1-hydroxy-3-phenylpropyl)-5-(4-methyl-7H-pyrrolo[2,3-d]pyrimidin-7-yl)tetrahydrofuran-3,4-diol]
91.7 µM	Cc1ncnc2c1ccn2[C@@H]1O[C@H]([C@H](O)c2ccccc2S(C)(=O)=O)[C@@H](O)[C@H]1O [Example 81]
0.007 µM	O[C@@H]1[C@H](O)[C@@H]([C@H](O)c2ccc(F)c(F)c2)O[C@H]1n1ccc2c(CF)ncnc21 [Example 107, (2R,3S,4R,5R)-2-((R)-(3,4-difluorophenyl)(hydroxy)methyl)-5-(4-(fluoromethyl)-7H-pyrrolo[2,3-d]pyrimidin-7-yl)tetrahydrofuran-3,4-diol]
0.011 µM	Cc1ncnc2c1ccn2[C@@H]1O[C@H]([C@H](O)C(F)(F)F)[C@@H](O)[C@H]1O [Example 56, (2R,3R,4S,5S)-2-(4-methyl-7H-pyrrolo[2,3-d]pyrimidin-7-yl)-5-((S)-2,2,2-trifluoro-1-hydroxyethyl)tetrahydrofuran-3,4-diol]
74 µM	Cc1ncnc2c1ccn2[C@@H]1O[C@H]([C@@H](O)C2CCCC2)[C@@H](O)[C@H]1O [Example 43, (2R,3S,4R,5R)-2-((S)-cyclopentyl(hydroxy)methyl)-5-(4-methyl-7H-pyrrolo[2,3-d]pyrimidin-7-yl)tetrahydrofuran-3,4-diol]
0.023 µM	Cc1ncnc2c1ccn2[C@@H]1O[C@H]([C@H](O)c2cccc(C(F)(F)F)c2)[C@@H](O)[C@H]1O [Example 16, (2R,3S,4R,5R)-2-((R)-hydroxy(3-(trifluoromethyl)phenyl)methyl)-5-(4-methyl-7H-pyrrolo[2,3-d]pyrimidin-7-yl)tetrahydrofuran-3,4-diol]
2.03 µM	Cc1ncnc2c1ccn2[C@@H]1O[C@@H](c2ccn[nH]2)[C@@H](O)[C@H]1O [Example 72, (2R,3R,4S,5S)-2-(4-methyl-7H-pyrrolo[2,3-d]pyrimidin-7-yl)-5-(1H-pyrazol-5-yl)tetrahydrofuran-3,4-diol]
4.76 µM	Cc1ncnc2c1ccn2[C@@H]1O[C@H]([C@@H](O)c2ccco2)[C@@H](O)[C@H]1O [Example 55, (2S,3S,4R,5R)-2-((R)-furan-2-yl(hydroxy)methyl)-5-(4-methyl-7H-pyrrolo[2,3-d]pyrimidin-7-yl)tetrahydrofuran-3,4-diol]
0.052 µM	Cc1ncnc2c1ccn2[C@@H]1O[C@@H](CO)[C@@H](O)[C@H]1O [Example 71, (2S,3S,4R,5R)-2-(hydroxymethyl)-5-(4-methyl-7H-pyrrolo[2,3-d]pyrimidin-7-yl)tetrahydrofuran-3,4-diol]
1.98 µM	Cc1ncnc2c1ccn2[C@@H]1O[C@H](Cn2cccn2)[C@@H](O)[C@H]1O [Example 58, (2R,3S,4R,5R)-2-((1H-pyrazol-1-yl)methyl)-5-(4-methyl-7H-pyrrolo[2,3-d]pyrimidin-7-yl)tetrahydrofuran-3,4-diol]
5.23 µM	Cc1ncnc2c1ccn2[C@@H]1O[C@@H](C(O)CO)[C@@H](O)[C@H]1O (stereo partly drawn) [Example 79, (2S,3S,4R,5R)-2-(1,2-dihydroxyethyl)-5-(4-methyl-7H-pyrrolo[2,3-d]pyrimidin-7-yl)tetrahydrofuran-3,4-diol]
9.23 µM	Cc1ncnc2c1ccn2[C@@H]1O[C@H]([C@@H](O)C2CCC2)[C@@H](O)[C@H]1O [Example 53, (2R,3S,4R,5R)-2-((S)-cyclobutyl(hydroxy)methyl)-5-(4-methyl-7H-pyrrolo[2,3-d]pyrimidin-7-yl)tetrahydrofuran-3,4-diol]
2.27 µM	Cc1ncnc2c1ccn2[C@@H]1OC([C@H](O)c2cc(F)cc(C(F)(F)F)c2)[C@@H](O)[C@H]1O (stereo partly drawn) [Example 17, (3S,4R,5R)-2-((3-fluoro-5-(trifluoromethyl)phenyl)(hydroxy)methyl)-5-(4-methyl-7H-pyrrolo[2,3-d]pyrimidin-7-yl)tetrahydrofuran-3,4-diol]
0.15 µM	Cc1ncnc2c1ccn2[C@@H]1O[C@H]([C@@H](N)c2ccc(F)c(F)c2)[C@@H](O)[C@H]1O [Example 95, (2R,3S,4R,5R)-2-((S)-amino(3,4-difluorophenyl)methyl)-5-(4-methyl-7H-pyrrolo[2,3-d]pyrimidin-7-yl)tetrahydrofuran-3,4-diol]
3.24 µM	Cc1ncnc2c1ccn2[C@@H]1O[C@@H](C(C)(C)O)[C@@H](O)[C@H]1O [Example 90, (2R,3S,4R,5R)-2-(2-hydroxypropan-2-yl)-5-(4-methyl-7H-pyrrolo[2,3-d]pyrimidin-7-yl)tetrahydrofuran-3,4-diol]
0.299 µM	Cc1ncnc2c1ccn2[C@@H]1O[C@H]([C@@H](F)c2ccc(F)c(F)c2)[C@@H](O)[C@H]1O [Example 93, (2S,3S,4R,5R)-2-((S)-(3,4-difluorophenyl)fluoromethyl)-5-(4-methyl-7H-pyrrolo[2,3-d]pyrimidin-7-yl)tetrahydrofuran-3,4-diol]
0.035 µM	N[C@H](c1ccc(F)c(F)c1)[C@H]1O[C@@H](n2ccc3cncnc32)[C@H](O)[C@@H]1O [Example 118, (2R,3S,4R,5R)-2-((R)-amino(3,4-difluorophenyl)methyl)-5-(7H-pyrrolo[2,3-d]pyrimidin-7-yl)tetrahydrofuran-3,4-diol]
0.03 µM	Nc1ncnc2c1c(F)cn2[C@@H]1O[C@H](Cc2ccc(F)cc2)[C@@H](O)[C@H]1O [Example 101, (2R,3R,4S,5R)-2-(4-amino-5-fluoro-7H-pyrrolo[2,3-d]pyrimidin-7-yl)-5-(4-fluorobenzyl)tetrahydrofuran-3,4-diol]
0.663 µM	Cc1ncnc2c1ccn2[C@@H]1O[C@H]([C@H](O)C2CCCC2)[C@@H](O)[C@H]1O [Example 42, (2R,3S,4R,5R)-2-((R)-cyclopentyl(hydroxy)methyl)-5-(4-methyl-7H-pyrrolo[2,3-d]pyrimidin-7-yl)tetrahydrofuran-3,4-diol]
15.4 µM	Cc1ncnc2c1ccn2[C@@H]1O[C@H]([C@@H](O)C2CC2)[C@@H](O)[C@H]1O [Example 47, (2R,3S,4R,5R)-2-((S)-cyclopropyl(hydroxy)methyl)-5-(4-methyl-7H-pyrrolo[2,3-d]pyrimidin-7-yl)tetrahydrofuran-3,4-diol]
4.84 µM	CN[C@H](c1ccc(F)c(F)c1)[C@H]1O[C@@H](n2ccc3c(C)ncnc32)[C@H](O)[C@@H]1O [Example 109, (2R,3S,4R,5R)-2-((R)-(3,4-difluorophenyl)(methylamino)methyl)-5-(4-methyl-7H-pyrrolo[2,3-d]pyrimidin-7-yl)tetrahydrofuran-3,4-diol]
24.4 µM	Cc1ncnc2c1ccn2[C@@H]1O[C@@H](c2ccn(C)n2)[C@@H](O)[C@H]1O [Example 77, (2S,3S,4R,5R)-2-(1-methyl-1H-pyrazol-3-yl)-5-(4-methyl-7H-pyrrolo[2,3-d]pyrimidin-7-yl)tetrahydrofuran-3,4-diol]
1.73 µM	Cc1ncnc2c1ccn2[C@@H]1O[C@@H]([C@H](C)O)[C@@H](O)[C@H]1O [Example 89, (2S,3S,4R,5R)-2-((S)-1-hydroxyethyl)-5-(4-methyl-7H-pyrrolo[2,3-d]pyrimidin-7-yl)tetrahydrofuran-3,4-diol]
1.83 µM	CC(C)C[C@@H](O)[C@H]1O[C@@H](n2cnc3c(N)ncnc32)[C@H](O)[C@@H]1O [Example 7, (2R,3R,4S,5R)-2-(6-amino-9H-purin-9-yl)-5-((R)-1-hydroxy-3-methylbutyl)tetrahydrofuran-3,4-diol]
0.024 µM	Cc1ncnc2c1ccn2[C@@H]1O[C@H]([C@H](O)c2ccco2)[C@@H](O)[C@H]1O [Example 54, (2S,3S,4R,5R)-2-((S)-furan-2-yl(hydroxy)methyl)-5-(4-methyl-7H-pyrrolo[2,3-d]pyrimidin-7-yl)tetrahydrofuran-3,4-diol]

Compound	IC50
C[C@@](O)(c1ccc(F)c(F)c1)[C@H]1O[C@@H](n2ccc3c(N)ncnc32)[C@H](O)[C@@H]1O [Example 103, (2R,3R,4S,5S)-2-(4-amino-7H-pyrrolo[2,3-d]pyrimidin-7-yl)-5-((R)-1-(3,4-difluorophenyl)-1-hydroxyethyl)tetrahydrofuran-3,4-diol]	0.002 µM
